Earlier results on five molecules are cited in US20260210975A1, “DIAGNOSIS AND TREATMENT OF LONG-COVID” (priority 2022, published 2026).

pIC50: −log10 of the molar value. Read-outs that look alike come from different tables or passages of the source.

For this data set, the target named is KCNH2 (Homo sapiens, UniProt Q12809).
Chain of KCNH2 (Q12809 whole entry): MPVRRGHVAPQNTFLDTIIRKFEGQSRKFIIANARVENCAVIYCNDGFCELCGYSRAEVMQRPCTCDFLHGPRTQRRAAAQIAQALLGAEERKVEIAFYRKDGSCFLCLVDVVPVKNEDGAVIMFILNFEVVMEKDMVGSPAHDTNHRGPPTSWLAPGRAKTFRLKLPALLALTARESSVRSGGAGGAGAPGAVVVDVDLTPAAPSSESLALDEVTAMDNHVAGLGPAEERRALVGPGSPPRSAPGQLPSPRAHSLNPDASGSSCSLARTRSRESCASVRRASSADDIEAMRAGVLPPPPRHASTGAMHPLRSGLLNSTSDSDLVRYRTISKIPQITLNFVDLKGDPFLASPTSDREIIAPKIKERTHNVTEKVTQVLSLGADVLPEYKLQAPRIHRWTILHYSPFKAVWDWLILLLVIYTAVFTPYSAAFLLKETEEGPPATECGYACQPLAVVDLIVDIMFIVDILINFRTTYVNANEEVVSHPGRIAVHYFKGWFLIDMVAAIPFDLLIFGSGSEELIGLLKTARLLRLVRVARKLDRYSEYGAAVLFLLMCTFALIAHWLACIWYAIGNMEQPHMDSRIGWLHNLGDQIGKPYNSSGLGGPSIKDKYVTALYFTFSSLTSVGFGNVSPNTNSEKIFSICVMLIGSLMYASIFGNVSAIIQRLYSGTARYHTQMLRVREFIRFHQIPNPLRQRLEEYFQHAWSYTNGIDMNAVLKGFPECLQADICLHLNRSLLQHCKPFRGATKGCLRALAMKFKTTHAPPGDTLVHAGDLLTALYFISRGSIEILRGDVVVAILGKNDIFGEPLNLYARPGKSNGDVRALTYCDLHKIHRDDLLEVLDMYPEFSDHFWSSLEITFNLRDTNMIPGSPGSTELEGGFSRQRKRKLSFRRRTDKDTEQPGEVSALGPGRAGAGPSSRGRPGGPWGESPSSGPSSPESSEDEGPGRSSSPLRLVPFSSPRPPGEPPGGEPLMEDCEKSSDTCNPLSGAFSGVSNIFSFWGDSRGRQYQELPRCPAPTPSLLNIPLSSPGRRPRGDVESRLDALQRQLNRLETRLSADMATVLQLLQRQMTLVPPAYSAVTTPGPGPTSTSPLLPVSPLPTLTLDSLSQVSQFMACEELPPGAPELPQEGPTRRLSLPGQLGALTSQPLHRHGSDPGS

Turning to `C[C@@H]1CN(c2c(F)c(N)c3c(=O)c(C(=O)O)cn(C4CC4)c3c2F)C[C@H](C)N1` [sparfloxacin], the pIC50 is approximately 4.74.
Turning to prenylamine, the pIC50 (read-out: IC50 (half maximal inhibitory concentration), KCNH2 inhibitors, literature values) is approximately 6.23.
For the molecule `COc1ccc(CN(CCN(C)C)c2ccccn2)cc1` [pyrilamine], the pIC50 is approximately 5.22.
Turning to arsenic trioxide, for the setting “listed as weak inhibitor of KCNH2, literature value”, the IKr entry is on record as “approximately 300 μmol/l”.
For `Cc1cc2c(s1)Nc1ccccc1N=C2N1CCN(C)CC1` [olanzapine], the pIC50 is approximately 5.22.
